Laboratory results from patent US11246863B2 (ALK-ABELLÓ, INC., priority 2015, dated 2022).
Where two headings read alike, the source gives them in different places.

Legend:
Streptococcus pneumoniae = conditions: cited from earlier work
Pseudomonas aeruginosa = conditions: cited from earlier work
Moraxella catarrhalis = conditions: cited from earlier work
Staphylococcus aureus = conditions: cited from earlier work
rats = conditions: oral doses up to 100 mg/kg/day; cited from earlier work
Haemophilus influenzae = conditions: cited from earlier work
[1] = Particle size (D90) during manufacturing process; assay type: physicochemical
[2] = Loss on drying (weight loss upon heating); assay type: physicochemical; conditions: solid held at 40° C. 24 hours, then 125° C. oven one hour
Procedure: To assess the form of ciprofloxacin samples described in the present disclosure, a comparison experiment is conducted to evaluate the sample's loss of weight upon heating. […] The conditions and results of the experiment are summarized below: Experimental Setup—Loss on Drying: • If suspension: Pipette Cipro suspension onto filter on vacuum filter flask • Transfer filter/dry powder to 40° C. oven, hold 24 hours • Transfer solid to pre-weighed aluminum pan and weigh solid • Transfer pan to 125° C. oven, hold one hour • Weigh again and determine weight loss due to 125° C.

Row | Compound | antimicrobial activity against isolates (Streptococcus pneumoniae) | antimicrobial activity against isolates (Pseudomonas aeruginosa) | antimicrobial activity against isolates (Moraxella catarrhalis) | antimicrobial activity against isolates (Staphylococcus aureus) | impairment of fertility (rats) | antimicrobial activity against isolates (Haemophilus influenzae) | particle size D90 ([1]; listed as Ciprofloxacin free base anhydrous API powder) | Weight Loss on Drying [2] [%] | particle size D90 [1]
1 | O=C(O)c1cn(C2CC2)c2cc(N3CCNCC3)c(F)cc2c1=O [Ciprofloxacin, 1-cyclopropyl-6-fluoro-1,4-dihydro-4-oxo-7-(1-piperazinyl)-3-quinolinecarboxylic acid] | active against most isolates | active against most isolates | active against most isolates | active against most isolates | no evidence of impairment | active against most isolates | – | – | –
2 | O=C(O)c1cn(C2CC2)c2cc(N3CCNCC3)c(F)cc2c1=O [Sample 1] | – | – | – | – | – | – | under 15 μm | 0.1 | –
3 | O=C(O)c1cn(C2CC2)c2cc(N3CCNCC3)c(F)cc2c1=O [Sample 2] | – | – | – | – | – | – | – | 11.1 | around 60 μm
